Laboratory results reported in patent US6440968B1, “Use of maduraohtalazine derivatives as inhibitors of proinflammatory cytokines” (Elbion G.m.b.H., priority 1999, dated 2002).

Experiments:
[1] = tested on: IL-4 release from D10.G4.1 cells; experiment: Inhibition of IL-4 release from D10.G4.1 cells (D10); assay type: cell-based; settings: D10 cells stimulated with anti-CD3 antibody, IL-4 ELISA of supernatants
Description: (§1) To determine the effect of the compounds according to the invention on the said cytokines, the inhibition of the release of IL-2,IL-4 and IL-5 from T cells was investigated in vitro.
3 days after thawing and cultivating D10 cells in medium (RPMI-1640 with HEPES/10% FCS/2 mM glutamine/100 U/m penicillin/100 mg/m streptomycin and 50 μM mercaptoethanol) with Rat Stim™ (Collaborative Biomedical Products, Bedford Mass.) they are spun down, washed with medium without Rat Stim™, seeded at a concentration of 40,000 to 60,000 cells per well in a microtitre plate and incubated at 37° C./5% CO2/100% humidity for 3.5 hours. The substances to be tested are then applied in various concentrations in each case 50μ per well. The determinations of the maximum value and spontaneous value each receive 50μ of medium/0.4% DMSO.
After a further 30 minutes of incubation, stimulation is carried out with in each case 50μ of anti-CD3 antibody (145-2C11, Cedarlane Laboratories Limited, Hornby/Ontario) per well (final dilution 1:100). The determination of the spontaneous value receives 50μ of medium. After incubation overnight, the supernatants are measured in an IL-4 ELISA (Pharmingen: capture mab: 18031D; detection mab: 18042 D). The IC50 determination was analysed by a logit-log plot.

[2] = tested on: IL-5 release from D10.G4.1 cells; experiment: Inhibition of IL-5 release from D10.G4.1 cells (D10); assay type: cell-based; settings: D10 cells stimulated with anti-CD3 antibody, IL-5 ELISA of supernatants
Description: as §1
3 days after thawing and cultivating D10 cells in medium (RPMI-1640 with HEPES/10% FCS/2 mM glutamine/100 U/m penicillin/100 mg/m streptomycin and 50 μM mercaptoethanol) with Rat Stirm™ (Collaborative Biomedical Products, Bedford Mass.) they are spun down, washed with medium without Rat Stim™, seeded at a concentration of 40,000 to 60,000 cells per well in a microtitre plate and incubated at 37° C./5% CO2/100% humidity for 3.5 hours. The substances to be tested are then applied in various concentrations in each case 50μ per well. The determinations of the maximum value and spontaneous value each receive 50μ d of medium/0.4% DMSO. After a further 30 minutes of incubation, stimulation is carried out with in each case 50μ of anti-CD3 antibody (145-2C11, Cedarlane Laboratories Limited, Hornby/Ontario) per well (final dilution 1:100). The determination of the spontaneous value receives 50μ of medium. After incubation overnight, the supernatants are measured in an IL-5 ELISA (Pharmingen: capture mab: 18051D; detection mab: 18062 D). The IC50 determination was analysed by a logit-log plot.

[3] = tested on: IL-2 release from Jurkat cells; experiment: Inhibition of IL-2 release from Jurkat cells; assay type: cell-based; settings: Homo sapiens; Jurkat cells stimulated with ionomycin/PMA, IL-2 ELISA of supernatants
Description: as §1
Jurkat cells (clone E6-1, batch F-12871, from ATCC, Rockville, Md.) are seeded at about 100,000 cells in 50μ per well in microtitre plates and preincubated in an incubator (5% CO2/37° C./100% humidity). The medium employed is RPMI-1640 with HEPES/10% FCS/2 mM glutamine/100 U/m penicillin/100 mg/m streptomycin and 50 μM mercaptoethanol. After 3 hours, the substances to be tested are applied in various concentrations (100μ per well). To determine the spontaneous value and maximum values, in each case only medium/0.2% DMSO is applied. 30 minutes after application of substance and incubation, stimulation is carried out with in each case 25μ of ionomycin (final concentration 1 μM, Sigma I-0634) and phorbol myristate acetate (PMA, final concentration 25 ng/m, Sigma P-8139) per well. The spontaneous value receives 50μ of medium in place of ionomycin/PMA. Incubation overnight is then carried out. The supernatants are measured undiluted in an IL-2 ELISA (Pharmingen, capture mab: 18951 D detection mab: 20672 D). The IC50 determination was analysed by a logit-log plot.

[4] = tested on: pulmonary infiltration of eosinophils; experiment: Inhibition of the late phase eosinophilia 24 h after challenge of actively sensitized guinea pigs by ovalbumin inhalation; assay type: in vivo, Dunkin-Hartley guinea pigs; settings: 10 mg/kg i.p. 2 h before challenge, bronchoalveolar lavage 24 h after ovalbumin challenge; for Eosinophils B = eosinophils in the substance-treated group with ovalbumin challenge: mean
Description: The inhibition of the pulmonary infiltration of eosinophils by the substances is examined in an in vivo test on Dunkin-Hartley guinea pigs which have been actively sensitized against ovalbumin. The sensitization is effected by two subcutaneous injections of a suspension of 10 μg of ovalbumin together with 1 mg of aluminium hydroxide in 0.5 m of physiological saline as adjuvant at an interval of 14 days. 7 days after the second injection, the animals in the control group which are to be exposed to an ovalbumin aerosol are pretreated with mepyramine maleate (10 mg/kg i.p.) in order to protect from anaphylactic death. After 30 minutes, the animals are exposed in a plastic box for 30 sec to an ovalbumin aerosol (0.5 mg/m ) which is produced by an atomizer driven by compressed air (19.6 kPa). Control animals are exposed to an aerosol of physiological saline. 24 hours after the exposure to ovalbumin aerosol (challenge) the animals are anaesthetized with an overdose of ethylurethane (1.5 g/kg of body weight i.p.), and a bronchoalveolar lavage is carried out with 2×5 m of physiological saline. The lavage fluid is collected and centrifuged at 300 rpm for 10 min, and then the cell pellet is resuspended in 1 m of physiological saline. The eosinophils are stained using the Becton-Dickinson test kit (N.5877) for eosinophils and are counted in a Neubauer chamber. Each test includes 2 control groups (exposure to a physiological saline aerosol and exposure to an ovalbumin solution aerosol).
The test substances are administered intraperitoneally or orally as suspension in 10% polyethylene glycol 300 and 0.5% strength 5-hydroxyethylcellulose 2 hours before the allergen challenge. The control groups are treated with the vehicle in a form corresponding to the administration of the test substance. The number of animals in each control and test group is 3-10.

melting point	IC50 [2] [nM]	SMILES	other results
> 300 °C	–	COc1c2c(c(O)c3c1C(=O)c1c(cc(O)c(C)c1O)C3=O)-c1c(cc3cnn(CCO)c(=O)c3c1O)CC2 [Compound 4, 2-(2-Hydroxyethyl)-10,12,15,16-tetrahydroxy-8-methoxy-11-methyl-9,14-dioxo-6,7,9,14-tetrahydronaphthaceno[1,2-g]phthalazin-1-one]	–
350 to 351 °C	–	CCCn1ncc2cc3c(c(O)c2c1=O)-c1c(O)c2c(c(OC)c1CC3)C(=O)c1c(cc(O)c(C)c1O)C2=O [Compound 3, 2-Propyl-10,12,15,16-tetrahydroxy-8-methoxy-11-methyl-9,14-dioxo-6,7,9,14-tetrahydronaphthaceno[1,2-g]phthalazin-1-one]	IC50 [1]: 2910 nM
> 350 °C	–	COC(=O)Oc1cc2c(c(O)c1C)C(=O)c1c(OC)c3c(c(O)c1C2=O)-c1c(cc2cnn(-c4ccccc4)c(=O)c2c1O)CC3 [Compound 7, 2-Phenyl-10,15,16-trihydroxy-8-methoxy-12-methoxycarbonyloxy-11-methyl-9,14-dioxo-6,7,9,14-tetrahydronaphthaceno[1,2-g]phthalazin-1-one]	–
> 350 °C	–	Cc1c(O)cc2c(c1O)C(=O)c1c(O)c3c(c(O)c1C2=O)-c1c(cc2cnn(-c4ccccn4)c(=O)c2c1O)CC3 [Compound 9, 2-(2-Pyridyl)-8,10,12,15,16-pentahydroxy-11-methyl-9,14-dioxo-6,7,9,14-tetrahydronaphthaceno[1,2-g]phthalazin-1-one]	–
163 °C	–	C=CCc1cc2c(c(O)c1C)C(=O)c1c(OC)c3c(c(O)c1C2=O)-c1c(cc2cnn(-c4ccccc4)c(=O)c2c1O)CC3 [Compound 17, 2-Phenyl-12-allyl-10,15,16-trihydroxy-8-methoxy-11-methyl-9,14-dioxo-6,7,9,14-tetrahydronaphthaceno[1,2-g]phthalazin-1-one]	–
285 °C	–	CCOC(Cn1ncc2cc3c(c(O)c2c1=O)-c1c(O)c2c(c(OC)c1CC3)C(=O)c1c(cc(O)c(C)c1O)C2=O)OCC [Compound 11, 2-(2,2-Diethoxyethyl)-10,12,15,16-tetrahydroxy-8-methoxy-11-methyl-9,14-dioxo-6,7,9,14-tetrahydronaphthaceno[1,2-g]phthalazin-1-one]	–
> 350 °C	–	Cc1c(O)cc2c(c1O)C(=O)c1c(O)c3c(c(O)c1C2=O)-c1c(cc2cnn(-c4ccccc4)c(=O)c2c1O)CC3 [Compound 10, 2-Phenyl-8,10,12,15,16-pentahydroxy-11-methyl-9,14-dioxo-6,7,9,14-tetrahydronaphthaceno[1,2-g]phthalazin-1-one]	–
> 350 °C (dec.)	780	COc1c2c(c(O)c3c1C(=O)c1c(cc(O)c(C)c1O)C3=O)-c1c(cc3cnn(CCN)c(=O)c3c1O)CC2 [Compound 8, 2-(2-Aminoethyl)-10,12,15,16-tetrahydroxy-8-methoxy-11-methyl-9,14-dioxo-6,7,9,14-tetrahydronaphthaceno[1,2-g]phthalazin-1-one]	IC50 [1]: 2580 nM
–	520	COc1c2c(c(O)c3c1C(=O)c1c(cc(O)c(C)c1O)C3=O)-c1c(cc3cnn(-c4ccccn4)c(=O)c3c1O)CC2 [Compound 16, 2-(2-Pyridyl)-10,12,15,16-tetrahydroxy-8-methoxy-11-methyl-9,14-dioxo-6,7,9,14-tetrahydronaphtbaceno[1,2-g]phthalazin-1-one]	–
–	450	COc1c2c(c(O)c3c1C(=O)c1c(cc(O)c(C)c1O)C3=O)-c1c(cc3cn[nH]c(=O)c3c1O)CC2 [Compound 1, 10,12,15,16-Tetrahydroxy-8-methoxy-11-methyl-9,14-dioxo-6,7,9,14-tetrahydronaphthaceno[1,2-g]phthalazin-1-one]	IC50 [3]: 80 nM; IC50 [1]: 860 nM; Inhibition (of late phase eosinophilia) [4]: 112.4; Eosinophils B = eosinophils in the substance-treated group with ovalbumin challenge [4]: 0.51 10^6/animal
> 350 °C (dec.)	–	COc1c2c(c(O)c3c1C(=O)c1c(cc(O)c(C)c1O)C3=O)-c1c(cc3cnn(-c4ncc[nH]4)c(=O)c3c1O)CC2 [Compound 15, 2-(2-Imidazolyl)-10,12,15,16-tetrahydroxy-8-methoxy-11-methyl-9,14-dioxo-6,7,9,14-tetrahydronaphthaceno[1,2-g]phthalazin-1-one]	–
–	880	COc1c2c(c(O)c3c1C(=O)c1c(O)cc(O)cc1C3=O)-c1c(cc3c(C)nn(C)c(=O)c3c1O)CC2 [Compound 2, 2-Methyl-10,12,15,16-tetrahydroxy-8-methoxy-1-methyl-9,14-dioxo-6,7,9,14-tetrahydronaphthaceno[1,2-g]phthalazin-1-one]	IC50 [1]: 1460 nM
–	430	COc1c2c(c(O)c3c1C(=O)c1c(cc(O)c(C)c1O)C3=O)-c1c(cc3cnn(-c4ccccc4)c(=O)c3c1O)CC2 [Compound 5, 2-phenyl-10,12,15,16-tetrahydroxy-8-methoxy-11-methyl-9,14-dioxo-6,7,9, 14-tetrahydronaphthaceno[1,2-g]phthalazin-1-one]	IC50 [3]: 200 nM; Inhibition (of late phase eosinophilia) [4]: 85.0; Eosinophils B = eosinophils in the substance-treated group with ovalbumin challenge [4]: 0.85 10^6/animal

SMILES	melting point	IC50 [2] [nM]	other results
COc1c2c(c(OC(C)=O)c3c1C(=O)c1c(cc(OC(C)=O)c(C)c1OC(C)=O)C3=O)-c1c(cc3cnn(-c4ccccc4)c(=O)c3c1OC(C)=O)CC2 [Compound 12, 2-Phenyl-10,12,15,16-tetraacetoxy-8-methoxy-11-methyl-9,14-dioxo-6,7,9,14-tetrahydronaphthaceno[1,2-g]phthalazin-1-one]	273 °C	–	–
COc1c2c(c(O)c3c1C(=O)c1c(cc(O)c(C)c1O)C3=O)-c1c(cc3cnn(CCOC(C)=O)c(=O)c3c1O)CC2 [Compound 6, 2-(2-Acetoxyethyl)-10,12,15,16-tetrahydroxy-8-methoxy-11-methyl-9,14-dioxo-6,7,9,14-tetrahydronaphthaceno[1,2-g]phthalazin-1-one]	> 350 °C	–	–
